Laboratory results: US12643884B2, “1-(2-(4-cyclopropyl-1H-1,2,3-triazol-1-yl)acetyl)-4-hydroxypyrrolidine-2-carboxa|mide derivatives as VHL inhibitors for the treatment of anemia” (Genentech, Inc., priority 2020, dated 2026)

Assays:
[1] = target: T1, NanoLuc VHL fusion protein stably expressed in HEK 293 cells (Homo sapiens, UniProt P40337); assay: VHL HEK-293 BRET Assay (VHL NanoBRET Target Engagement Assay); assay type: cell-based; details: for IC50: HEK293 cells, nanoBRET, geometric mean where more than one measurement, read-out: VHL binding in cells (HEK293 nanoBRET); for Ratio cell permeability shift: ratio of nanoBRET in cells to nanoBRET +Digitonin
T1 construct: expressed in transfected cells
T1 sequence (P40337 whole entry, the tested form may be a part): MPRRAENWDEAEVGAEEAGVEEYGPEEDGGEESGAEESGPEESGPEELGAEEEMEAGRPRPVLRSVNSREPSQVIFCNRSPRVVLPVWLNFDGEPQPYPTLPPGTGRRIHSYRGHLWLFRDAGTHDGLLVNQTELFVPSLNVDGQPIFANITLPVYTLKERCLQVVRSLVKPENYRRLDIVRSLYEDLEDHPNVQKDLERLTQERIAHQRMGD
T1 sequence (Q15370 whole entry partner, the tested form may be a part): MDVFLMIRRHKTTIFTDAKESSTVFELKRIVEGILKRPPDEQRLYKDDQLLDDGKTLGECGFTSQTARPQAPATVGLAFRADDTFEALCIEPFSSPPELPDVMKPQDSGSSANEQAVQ
T1 sequence (Q15369 whole entry partner, the tested form may be a part): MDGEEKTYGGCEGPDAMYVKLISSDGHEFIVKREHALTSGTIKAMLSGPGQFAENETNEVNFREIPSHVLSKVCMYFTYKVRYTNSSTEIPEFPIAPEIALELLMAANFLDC
Procedure: The VHL NanoBRET™ Target Engagement Assay analyzes the apparent affinity of test compounds for VHL in cells by competitive displacement of a VHL NanoBRET™ tracer reversibly bound to a NanoLuc® VHL fusion protein stably expressed in the cells.
Test compounds were transferred to the assay plate (384 Well White Non-Binding Corning Assay Plates (Corning-3574)) using an Echo 555 Liquid Handler (Labcyte) in 2.5 nL increments and, as appropriate, intermediate stock concentrations of compounds, in order to prepare a titration series. 50 nL of control compound (10 mM; parental unlabeled VHL antagonist; see structure below) and 50 nL of DMSO (negative control) were dispensed into the appropriate control wells. DMSO was backfilled to a final volume of 50 nL as required. 50 nl per well of 1 mM VHL NanoBRET™ Tracer in DMSO (NanoBRET™ Tracer-PEG2-590 (see structure below)) was transferred into each well using an Echo 555 (ultimately yielding a final concentration of 1 uM). HEK 293 RT VHL-NanoLuc® stable cells were cultured in DMEM High Glucose with Pyruvate, 10% fetal bovine serum, 2 mg/mL of Geneticin Selective Antibiotic (50 mg/ml) and 2 mM HEPES (1 M). Cells were seeded in Opti-MEM (Life Technologies-11058-021), 1.7×10^5 cells/mL, 40 μl per well into the assay plate, centrifuged at 500 rpm for 30 seconds and incubated for 2 hours. Max Signal control wells consisted of DMSO only treated wells. Minimum Signal control wells contained of 10 uM parental unlabeled VHL antagonist (control compound—see structure below). 3× Complete Substrate plus Inhibitor Solution was prepared in Opti-MEM (consists of a 1:166 dilution of NanoBRET™ Nano-Glo® Substrate plus a 1:500 dilution of Extracellular NanoLuc® Inhibitor in Opti-MEM), and 20 ul was dispensed into each well of the 384-well plate and centrifuged at 1000 rpm for 1 minute, then incubated for 2 minutes at room temperature. Background Signal control wells were prepared without tracer for background correction steps.
Plates were read using a PerkinElmer Envision Reader (model 2104-0020) equipped with Luminescence option (Mirror: BRET2 Enh (PE Barcode 659), Emission Filter: Omega 610LP (Barcode 504), 2nd Emission Filter: Umbelliferone 460 (Barcode 207), Measurement height: 6.5 mm, Measurement time: 1 s). The raw BRET ratio values were calculated by dividing the acceptor emission value (610 nm) by the donor emission value (460 nm) for each sample. To correct for background, the BRET ratio in the absence of tracer (average of no-tracer control samples) was subtracted from the BRET ratio of each sample. Raw BRET units were converted to milliBRET units (mBU) by multiplying each raw BRET value by 1,000. The normalized NanoBRET™ signal was calculated relative to the Max Signal control wells (DMSO treated control wells) and the Minimum Signal control wells. Percentage inhibition was calculated relative to the Minimum Signal control and Maximum Signal control wells. IC50 values were derived by four parameter curve fitting using the Robust method.

VHL = target: T2, VHL (Homo sapiens, UniProt P40337); assay: VHL nanoBRET (+Digitonin); assay type: cell-based
T2 construct: expressed in transfected cells
T2 sequence (P40337 whole entry): as the sequence (P40337 whole entry, the tested form may be a part) above
T2 sequence (Q15370 whole entry partner): as the sequence (Q15370 whole entry partner, the tested form may be a part) above
T2 sequence (Q15369 whole entry partner): as the sequence (Q15369 whole entry partner, the tested form may be a part) above

IC50 [1] [µM] | Ratio cell permeability shift [1] | EC50 (VHL) [µM] | SMILES
2.65 | 1.26 | 2.11 | CNC(=O)[C@@H]1C[C@@H](O)CN1C(=O)[C@H](C(C)C)n1cc(-c2ccc[nH]2)nn1 (mixture of isomers) [Final product from Example S29, (2S, 4R)-4-hydroxy-N-methyl-1-[rac-(2S)-3-methyl-2-[4-(1H-pyrrol-2-yl)triazol-1-yl]butanoyl]pyrrolidine-2-carboxamide]
1.1 | 0.92 | 1.2 | CNC(=O)[C@@H]1C[C@@H](O)CN1C(=O)[C@H](C(C)C)n1cc(-c2nccs2)nn1 (mixture of isomers) [Final product from Example S31, (2S, 4R)-4-hydroxy-N-methyl-1-[rac-(2S)-3-methyl-2-(4-thiazol-2-yltriazol-1-yl)butanoyl]pyrrolidine-2-carboxamide]
8.04 | 3.00 | 2.68 | CNC(=O)[C@@H]1C[C@@H](O)CN1C(=O)[C@H](C1CCOCC1)n1cc(C2CC2)nn1 (single isomer, unassigned) [Final product from Example S6]
0.32 | 0.68 | 0.47 | CNC(=O)[C@@H]1C[C@@H](O)CN1C(=O)[C@H](C1CCCCC1)n1cc(-c2ccco2)nn1 (single isomer, unassigned) [Final product from Example S23]
2.15 | 0.76 | 2.84 | CNC(=O)[C@@H]1C[C@@H](O)CN1C(=O)[C@H](C(C)C)n1nnc2ccccc21 (single isomer, unassigned) [Final product from Example S24]
2.6 | 0.68 | 3.8 | CNC(=O)[C@@H]1C[C@@H](O)CN1C(=O)[C@H](C(C)C)n1nnc2c(OC)cccc21 (single isomer, unassigned) [Final product from Example S25]
1.02 | 0.51 | 1.98 | CNC(=O)[C@@H]1C[C@@H](O)CN1C(=O)[C@H](C(C)C)n1nnc2cc(F)c(F)cc21 (single isomer, unassigned) [Final product from Example S26]
0.92 | 0.95 | 0.97 | CNC(=O)[C@@H]1C[C@@H](O)CN1C(=O)[C@H](C(C)C)n1cc(-c2ncco2)nn1 (single isomer, unassigned) [Final product from Example S30]
0.9 | 0.80 | 1.12 | CNC(=O)[C@@H]1C[C@@H](O)CN1C(=O)[C@H](C(C)C)n1cc(-c2cncs2)nn1 (single isomer, unassigned) [Final product from Example S33]
3 | 0.97 | 3.1 | CNC(=O)[C@@H]1C[C@@H](O)CN1C(=O)[C@H](C(C)C)n1cc(C2CC2)nn1 (single isomer, unassigned) [Isomer A from Example S11]
> 100 |  | > 100 | CNC(=O)[C@@H]1C[C@@H](O)CN1C(=O)[C@@H](C(C)C)n1cc(C2CC2)nn1 (single isomer, unassigned) [Isomer B from Example S11]
2.99 | 1.17 | 2.55 | CNC(=O)[C@@H]1C[C@@H](O)CN1C(=O)[C@@H](n1cc(C2CC2)nn1)C(C)(C)C [Final product from Example S2, (2S,4R)-1-((S)-2-(4-cyclopropyl-1H-1,2,3-triazol-1-yl)-3,3-dimethylbutanoyl)-4-hydroxy-N-methylpyrrolidine-2-carboxamide]
1.61 | 0.96 | 1.67 | CNC(=O)[C@@H]1C[C@@H](O)CN1C(=O)[C@H](C1CCCCC1)n1cc(C2CC2)nn1 [Final product from Example S3, (2S,4R)-1-((S)-2-cyclohexyl-2-(4-cyclopropyl-1H-1,2,3-triazol-1-yl)acetyl)-4-hydroxy-N-methylpyrrolidine-2-carboxamide]
15.2 | 1.26 | 12.1 | CNC(=O)[C@@H]1C[C@@H](O)CN1C(=O)[C@@H](n1ccnn1)C(C)(C)C [Final product from Example S4, (2S,4R)-1-((S)-3,3-dimethyl-2-(1H-1,2,3-triazol-1-yl)butanoyl)-4-hydroxy-N-methylpyrrolidine-2-carboxamide]
10.5 | 1.24 | 8.45 | CNC(=O)[C@@H]1C[C@@H](O)CN1C(=O)C(n1cc(C2CC2)nn1)C1(C)CCCCC1 (stereo partly drawn) [Final product from Example S5, (2S,4R)-1-[2-(4-cyclopropyltriazol-1-yl)-2-(1-methylcyclohexyl)acetyl]-4-hydroxy-N-methyl-pyrrolidine-2-carboxamide]
 | >10.00 | 8.96 | CNC(=O)[C@@H]1C[C@@H](O)CN1C(=O)[C@H](C1CCNCC1)n1cc(C2CC2)nn1 [Final product from Example S7, (2S,4R)-1-((S)-2-(4-cyclopropyl-1H-1,2,3-triazol-1-yl)-2-(piperidin-4-yl)acetyl)-4-hydroxy-N-methylpyrrolidine-2-carboxamide]
 | >10.00 | 10.8 | CNC(=O)[C@@H]1C[C@@H](O)CN1C(=O)[C@H](C1CCN(C)CC1)n1cc(C2CC2)nn1 [Final product from Example S8, (2S,4R)-1-((S)-2-(4-cyclopropyl-1H-1,2,3-triazol-1-yl)-2-(1-methylpiperidin-4-yl)acetyl)-4-hydroxy-N-methylpyrrolidine-2-carboxamide]
69.5 | 26.03 | 2.67 | CNC(=O)[C@@H]1C[C@@H](O)CN1C(=O)[C@H](C1CCN(C(C)=O)CC1)n1cc(C2CC2)nn1 [Final product from Example S9, (2S,4R)-1-((S)-2-(1-acetylpiperidin-4-yl)-2-(4-cyclopropyl-1H-1,2,3-triazol-1-yl)acetyl)-4-hydroxy-N-methylpyrrolidine-2-carboxamide]
10 | 4.83 | 2.07 | CNC(=O)[C@@H]1C[C@@H](O)CN1C(=O)[C@H](C1CCN(S(C)(=O)=O)CC1)n1cc(C2CC2)nn1 [Final product from Example S10, (2S,4R)-1-((S)-2-(4-cyclopropyl-1H-1,2,3-triazol-1-yl)-2-(1-(methylsulfonyl)piperidin-4-yl)acetyl)-4-hydroxy-N-methylpyrrolidine-2-carboxamide]
62.8 | 0.68 | 92.8 | CNC(=O)[C@@H]1C[C@@H](OC(C)=O)CN1C(=O)[C@@H](n1cc(C2CC2)nn1)C(C)(C)C [Final product from Example S12, (3R,5S)-1-((S)-2-(4-cyclopropyl-1H-1,2,3-triazol-1-yl)-3,3-dimethylbutanoyl)-5-(methylcarbamoyl)pyrrolidin-3-yl Acetate]
9.68 | 1.54 | 6.27 | CC(C)(C)[C@@H](C(=O)N1C[C@H](O)C[C@H]1C(=O)NC1CC1)n1cc(C2CC2)nn1 [Final product from Example S13, (2S,4R)—N-cyclopropyl-1-((S)-2-(4-cyclopropyl-1H-1,2,3-triazol-1-yl)-3,3-dimethylbutanoyl)-4-hydroxypyrrolidine-2-carboxamide]
6.55 | 1.24 | 5.3 | CC(C)(C)[C@@H](C(=O)N1C[C@H](O)C[C@H]1C(=O)NCC(F)(F)F)n1cc(C2CC2)nn1 [Final product from Example S14, (2S,4R)-1-((S)-2-(4-cyclopropyl-1H-1,2,3-triazol-1-yl)-3,3-dimethylbutanoyl)-4-hydroxy-N-(2,2,2-trifluoroethyl)pyrrolidine-2-carboxamide]
